Broadly, the Emax is the size of the effect at its maximum, as opposed to the concentration needed. The EC50 is the midpoint of the concentration-response curve. Low values mean a more potent agent, high ones a less potent agent.

The target of test [1] is PD-1/PD-L1 interaction (Homo sapiens (Human), UniProt Q9NZQ7). The test can be described thus: PD-1/PD-L1 NFAT Reporter Assay (Jurkat T cells / PD-L1 expressing CHO cells co-culture). The class given is cell-based. The following applies: for Emax: Jurkat, maximum NFAT-activation level relative to the positive control (10 nM Atezolizumab); for EC50: co-culture 6 hrs at 37° C., luciferase. As to the method: Blocking the PD-1/PD-L1 interaction will release the inhibitory signal and results in TCR signaling and NFAT-mediated luciferase activity.
CHO cells expressing surface-bound anti-CD3 antibodies and PD-L1 were first seeded overnight and treated with the compounds. Jurkat cells overexpressing PD-1 and a luciferase construct under NF-AT promoter were then immediately seeded on the monolayer of CHO cells. The co-culture was then incubated for 6 hrs at 37° C. Luciferase activity was assessed by adding the ONE-Glo reagent and measuring luminescence with a plate reader. EC50s values were determined from the fit of the dose-response curves Emax (%) corresponds to the maximum NFAT-activation level reached by a given compound relative to the positive control (10 nM Atezolizumab).
On the technique in general: A reporter such as luciferase makes a cellular process visible.

Test [2] addresses PDL1/PD1 (Homo sapiens (Human), UniProt Q9NZQ7). The test can be described thus: PDL1/PD1 Binding Assay. The following applies: PDL1-6xHis 0.3 nM, PD1-Fc-Avi-Biotin 2.5 nM, Acceptor/Donor beads; read-out: PD-1/PD-L1 PPI IC50. As for the experimental part:
Compounds to be tested were serially diluted in DMSO, and further diluted in assay buffer (25 mM Hepes pH 7.4, 150 mM NaCl, 0.005% Tween 20, BSA 0.01%). Diluted compounds were added to the wells with final concentration of DMSO at 1%. PDL1-6×His protein was added to the wells, mixed well with compound. The plates were incubated for 30 min at room temperature. PD1-Fc-Avi-Biotin protein was added to the wells. Final concentration of PDL1 and PD1 protein is 0.3 nM and 2.5 nM, respectively. After a binding time of 30 min at room temperature, Anti-6×His Acceptor beads (final concentration 20 ug/ml) were added to the wells, and the incubation continued for 1 h. Streptavidin Donor beads (final concentration 20 ug/mL) were added at reduced light. The plates were sealed with foil and incubated in the dark for additional 1 h or overnight before reading on an Envision reader. The IC50 values were determined by fitting the curves using a four-parameter equation in Graphpad Prism 8.

SMILES strings stand for the structures.

Chain of PDL1/PD1 (Q9NZQ7 19-238): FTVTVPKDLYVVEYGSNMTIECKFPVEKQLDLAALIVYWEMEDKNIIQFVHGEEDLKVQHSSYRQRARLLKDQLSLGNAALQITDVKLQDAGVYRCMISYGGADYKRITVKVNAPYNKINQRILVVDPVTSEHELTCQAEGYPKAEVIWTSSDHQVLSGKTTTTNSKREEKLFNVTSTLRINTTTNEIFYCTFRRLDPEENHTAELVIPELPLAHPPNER
Chain of PD-1/PD-L1 interaction (Q9NZQ7 19-290): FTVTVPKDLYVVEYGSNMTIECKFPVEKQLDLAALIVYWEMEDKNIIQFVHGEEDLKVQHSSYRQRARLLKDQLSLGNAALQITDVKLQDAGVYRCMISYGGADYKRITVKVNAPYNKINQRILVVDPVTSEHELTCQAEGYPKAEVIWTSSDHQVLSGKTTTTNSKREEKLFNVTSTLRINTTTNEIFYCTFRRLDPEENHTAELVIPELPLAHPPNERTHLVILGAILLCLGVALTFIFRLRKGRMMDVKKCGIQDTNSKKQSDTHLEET

In test [1], `CCOC(=O)C1CN([C@H]2CCc3cc(-c4cccc(-c5cccc(-c6cnc(CN7CC8(CCC(=O)N8)C7)c(OC)n6)c5Cl)c4Cl)cc(OC)c32)C1` (single isomer, unassigned) [Compound A-3] came in with an Emax of 84% and an EC50 of 100 to 1000 nM. Moreover, in test [2], the IC50 was not above 10 nM. As to `COc1nc(-c2cccc(-c3cccc(-c4cc5c(c(OC)n4)[C@H](NC[C@@H]4CCC(=O)N4)CO5)c3Cl)c2Cl)cc(C)c1CN1CC2(C1)CN(C(C)=O)C2` (single isomer, unassigned) [Compound E-5], the IC50 in test [2] was not above 10 nM. In test [1], `COc1cc(-c2cccc(-c3cccc(-c4cnc(CN5CC6(CCC(=O)N6)C5)c(OC)n4)c3Cl)c2Cl)cc2c1[C@H](N1CC(O)C1)CC2` (single isomer, unassigned) [Compound A-6] came in with an Emax of 32%. Also, in test [2], the IC50 is not above 10 nM. In test [1], `COc1nc(-c2cccc(-c3cccc(-c4cc5c(c(OC)n4)[C@@H](NC[C@@H]4CCC(=O)N4)CC5)c3Cl)c2Cl)cnc1CN1CC(OC)C1` [Compound D-9] returned an EC50 not above 10 nM. Further, the IC50 in test [2] is not above 10 nM. Compound `COc1nc(-c2cccc(-c3cccc(-c4cc5c(c(OC)n4)CCN(C[C@@H]4CCC(=O)N4)C5)c3Cl)c2Cl)cnc1CN1CC2(CCC(=O)N2)C1` [Compound K-1] registered an EC50 in test [1] of 10 to 100 nM. Same read-out and setting: in the case of `COc1nc(-c2cccc(-c3cccc(-c4cc5c(c(OC)n4)[C@@H](NC[C@@H]4CCC(=O)N4)CC5)c3Cl)c2Cl)cc(C)c1CN1CC2(C1)CN(C(C)=O)C2` [Compound E-2] it was not above 10 nM. Compound `COc1nc(-c2cccc(-c3cccc(-c4cc5c(c(OC)n4)[C@@H](NC[C@@H]4CCC(=O)N4)CC5)c3Cl)c2Cl)cnc1CN1CCCC1` [Compound D-11] showed an EC50 in test [1] not above 10 nM. Further, the IC50 in test [2] was not above 10 nM. In the case of `COc1nc(-c2cccc(-c3cccc(-c4cc5c(c(OC)n4)C(NC4CN(C(C)=O)C4)CC5)c3Cl)c2Cl)cnc1CN1CC2(CCC(=O)N2)C1` (stereo not shown) [Compound C-8], the EC50 in test [1] was 10 to 100 nM. Besides, the IC50 in test [2] is not above 10 nM. Taken in the same sequence, the figures for `COc1nc(-c2cccc(-c3cccc(-c4cc5c(c(OC)n4)[C@@H](N4CC6(CN(C(C)=O)C6)C4)CC5)c3Cl)c2Cl)cnc1CN1CC2(C1)CN(C(C)=O)C2` (single isomer, unassigned) [Compound D-18] were more than 10000 nM and not above 10 nM. The matching figures for `COc1nc(-c2cccc(-c3cccc(-c4cc5c(c(OC)n4)C(N4CCC(F)(F)C4)CC5)c3Cl)c2Cl)cnc1CN1CC2(CCC(=O)N2)C1` (stereo not shown) [Compound C-9]: 100 to 1000 nM and not above 10 nM.

`COc1nc(-c2cccc(-c3cccc(-c4cc5c(c(OCc6ccccn6)n4)C(NC[C@@H]4CCC(=O)N4)CC5)c3Cl)c2Cl)cnc1CN1CC2(CCC(=O)N2)C1` (stereo partly shown) [Compound C-15] registered an EC50 in test [1] of 10 to 100 nM. Moreover, the IC50 in test [2] was not above 10 nM. In test [1], `COc1nc(-c2cccc(-c3cccc(-c4cc5c(c(OC)n4)CCN(CC(=O)O)C5)c3Cl)c2Cl)cnc1CN1CC(C)(O)C1` [Compound J-2] showed an EC50 of 10 to 100 nM. The IC50 in test [2] was not above 10 nM. The matching figures for `COc1nc(-c2cccc(-c3cccc(-c4cc5c(c(OC)n4)C(N4CCC[C@H](C(=O)O)C4)CC5)c3Cl)c2Cl)cnc1CN1CC(O)C1` (stereo partly shown) [Compound F-2]: 10 to 100 nM and not above 10 nM.

As to `CCOC(=O)C1CN([C@H]2CCc3cc(-c4cccc(-c5cccc(-c6cnc(CN7C[C@@H](O)[C@@H]7C)c(OC)n6)c5Cl)c4Cl)nc(OC)c32)C1` (single isomer, unassigned) [Compound G-3], in test [1], the EC50 was more than 10000 nM.

On to `COc1cc(-c2cccc(-c3cccc(-c4cnc(CN5CC6(CCC(=O)N6)C5)c(OC)n4)c3Cl)c2Cl)cc2c1C[C@@H](N1CC(O)C1)C2` (single isomer, unassigned) [Compound A-10], for which, in test [1], the Emax came to 172% and the EC50 was in the range of 10 to 100 nM. For the same compound, the IC50 in test [2] is not above 10 nM.

As to `CCOC(=O)C1CN([C@@H]2CCc3cc(-c4cccc(-c5cccc(-c6cnc(CN7CC(O)C7)c(OC)n6)c5Cl)c4Cl)nc(OC)c32)C1` (single isomer, unassigned) [Compound G-2], in test [2], the IC50 is not above 10 nM. In test [1], `COc1nc(-c2cccc(-c3cccc(-c4cc5c(c(OC)n4)CCN(CC(=O)O)C5)c3Cl)c2Cl)cnc1CN1CC(O)C1` [Compound J-1] came in with an EC50 of 10 to 100 nM. As for `COc1nc(-c2cccc(-c3cccc(-c4cc5c(c(OC)n4)[C@H](N4CC6(CN(C(C)=O)C6)C4)CC5)c3Cl)c2Cl)cnc1CNC[C@@H]1CCC(=O)N1` (single isomer, unassigned) [Compound D-17], the EC50 in test [1] lay within 10 to 100 nM. The IC50 in test [2] was not above 10 nM. `COc1nc(-c2cccc(-c3cccc(-c4cc5c(c(OC)n4)[C@@H](NC[C@@H]4CCC(=O)N4)CC5)c3Cl)c2Cl)cnc1CN1CC2(CCC(=O)N2)C1` [Compound C-1]: the EC50 in test [1] was not above 10 nM.

`COc1nc(-c2cccc(-c3cccc(-c4cc5c(c(OC)n4)[C@H](NC[C@@H]4CCC(=O)N4)CC5)c3Cl)c2Cl)cnc1CN1CC2(CCC(=O)N2)C1` [Compound C-2] gave an EC50 in test [1] of 100 to 1000 nM. Also, in test [2], the IC50 was not above 10 nM. The matching figures for `COc1nc(-c2cccc(-c3cccc(-c4cc5c(c(OC)n4)C(N4CC6(CN(C(C)=O)C6)C4)CC5)c3Cl)c2Cl)cnc1CN1CC2(CCC(=O)N2)C1` (stereo not shown) [Compound C-11]: 10 to 100 nM and not above 10 nM. The matching figures for `COc1nc(-c2cccc(-c3cccc(-c4cc5c(c(OC)n4)[C@@H](NC[C@@H]4CCC(=O)N4)CC5)c3Cl)c2Cl)ccc1CN1CC2(CCC(=O)N2)C1` [Compound E-3]: not above 10 nM and not above 10 nM. In test [1], `COc1nc(-c2cccc(-c3cccc(-c4cc5c(c(OC)n4)[C@@H](N4CC(C(=O)O)C4)CC5)c3Cl)c2Cl)cnc1CN1C[C@@H](O)[C@@H]1C` (single isomer, unassigned) [Compound H-5] came in with a concentration giving a half-maximal response (EC50) of 10 to 100 nM. Besides, in test [2], the IC50 was not above 10 nM. `CCOC(=O)C1CN([C@@H]2CCc3cc(-c4cccc(-c5cccc(-c6cnc(CN7CC8(CCC(=O)N8)C7)c(OC)n6)c5Cl)c4Cl)cc(OC)c32)C1` (single isomer, unassigned) [Compound A-4] registered an Emax in test [1] of 18%. Also, in test [2], the IC50 is not above 10 nM. In test [1], `COc1nc(-c2cccc(-c3cccc(-c4cc5c(c(OC)n4)[C@@H](N4CC(C(=O)O)C4)CC5)c3Cl)c2Cl)cnc1CN1CC(O)C1` [Compound H-1] showed an EC50 of 10 to 100 nM. With `COc1nc(-c2cccc(-c3cccc(-c4cc5c(c(OC)n4)[C@H](NC[C@@H]4CCC(=O)N4)CC5)c3Cl)c2Cl)cnc1CN1CCCC1` [Compound D-12], the IC50 in test [2] was not above 10 nM. `CCOC(=O)C1CN([C@H]2CCc3cc(-c4cccc(-c5cccc(-c6cnc(CN7CC(O)C7)c(OC)n6)c5Cl)c4Cl)nc(OC)c32)C1` [Compound G-1] displayed an EC50 in test [1] of 10 to 100 nM. In the case of `CCOC(=O)C1CN([C@@H]2CCc3cc(-c4cccc(-c5cccc(-c6cnc(CN7C[C@@H](O)[C@@H]7C)c(OC)n6)c5Cl)c4Cl)nc(OC)c32)C1` (single isomer, unassigned) [Compound G-4], in test [1], the EC50 lay within 1000 to 10000 nM. Still for that read-out and setting: in the case of `CCOC(=O)CN1CCc2c(cc(-c3cccc(-c4cccc(-c5cnc(CN6CC(O)(C(F)(F)F)C6)c(OC)n5)c4Cl)c3Cl)nc2OC)C1` [Compound I-3] it was 1000 to 10000 nM. `CCOC(=O)CN1CCc2c(cc(-c3cccc(-c4cccc(-c5cnc(CN6CC(O)C6)c(OC)n5)c4Cl)c3Cl)nc2OC)C1` [Compound I-1] gave an EC50 in test [1] of 100 to 1000 nM. Same read-out and setting: next, `COc1nc(-c2cccc(-c3cccc(-c4cc5c(c(OCC(C)C)n4)C(NC[C@@H]4CCC(=O)N4)CC5)c3Cl)c2Cl)cnc1CN1CC2(CCC(=O)N2)C1` (stereo partly shown) [Compound C-13]: 10 to 100 nM; `COc1nc(-c2cccc(-c3cccc(-c4cc5c(c(OC)n4)C(N4CCC[C@@H](C(=O)O)C4)CC5)c3Cl)c2Cl)cnc1CN1CC(O)C1` (stereo partly shown) [Compound F-1]: 10 to 100 nM; `COCCN1CCc2c(cc(-c3cccc(-c4cccc(-c5cnc(CN6CC7(CCC(=O)N7)C6)c(OC)n5)c4Cl)c3Cl)nc2OC)C1` [Compound K-2]: 10 to 100 nM.

`COc1nc(-c2cccc(-c3cccc(-c4cc5c(c(OC)n4)[C@@H](NC[C@@H]4CCC(=O)N4)CC5)c3Cl)c2Cl)ccc1CNC[C@@H]1CCC(=O)N1` [Compound E-1] came in with an EC50 in test [1] not above 10 nM. For the compound `COc1nc(-c2cccc(-c3cccc(-c4cc5c(c(OC)n4)[C@@H](N4CC6(CN(C(C)=O)C6)C4)CC5)c3Cl)c2Cl)cnc1CNC[C@@H]1CCC(=O)N1` (single isomer, unassigned) [Compound D-16], the IC50 in test [2] is not above 10 nM. On to `COc1nc(-c2cccc(-c3cccc(-c4cc5c(c(OC)n4)[C@@H](NC[C@@H]4CCC(=O)N4)CC5)c3Cl)c2Cl)cnc1CN1CC2(C1)CN(C(C)=O)C2` [Compound D-1], for which the EC50 in test [1] was not above 10 nM.

The record behind these values is patent US11760761B2, “Methods and compositions for targeting PD-L1” (Aligos Therapeutics, Inc., priority 2020, dated 2023).
